According to patent publication US8278355B2, “Isovaline for treatment of pain” (Therexcell Pharma Inc., priority 2006, dated 2012):

How the values were obtained:
[1] = tested on: pain of formalin injection in the mouse foot; assay: Formalin hindpaw licking test, intravenous pre-treatment; format: in vivo, mice; conditions: for analgesia in peripherally induced pain, intravenous administration: overall summary
Description: Groups of mice (n=10) were injected intravenously with a dose of 500 mg/kg of compound (Ia) at 10 minutes prior to subcutaneous formalin injection into the right hindpaw. After the injection of formalin (5% in 20 microliters), the animals were monitored for 40 min for licking activity.

[2] = tested on: strychnine-induced allodynia; format: in vivo, mouse; conditions: for effect on hyperalgesia or allodynia (vocalization, flinching, scratching): 4 millimolar with strychnine 200 micromolar in 5 microliters aCSF, p<0.01; for effect on hyperalgesia or allodynia (vocalization, flinching, scratching) / behavior of mice treated with compound and strychnine / side effects in treated animals: cisterna magna; for behavior of mice treated with compound and strychnine: 4 millimolar with strychnine 200 micromolar, compared with aCSF control; for side effects in treated animals: 4 millimolar; for analgesia against trigeminal hyperalgesia or allodynia compared with carbamazepine / analgesia against trigeminal hyperalgesia or allodynia compared with morphine: overall summary
Description: Strychnine when administered alone to the intact rodent mimics the allodynia of chronic pain resulting from damage to inhibitory amino acid functions in the central nervous system.
In the present example, injections into the cisterna magna of the mouse were performed as described by Reijneveld, Taphoorn, and Voerst (Journal of Neurooncology 42: 137-142, 1999). Each series of experiments consisted of 6 to 9 pairs of mice. […] In each session, two mice were injected with the strychnine solution within one minute of each other. […] A continuous video recording was made of all responses.

[3] = Overall behavioral observation of the animals studied; format: in vivo; conditions: all animals studied
[4] = tested on: pain of formalin injection in the mouse foot; assay: Formalin hindpaw licking test, lumbar intrathecal pre-treatment; format: in vivo, mice; conditions: for activity against peripherally induced pain, administered to the lumbar cord: overall summary; for cumulative paw licking / licking, early phase (reflecting acute pain) / licking, late phase (reflecting chronic pain): 250 micromolar in 5 microliters, lumbar intrathecal; for cumulative paw licking: 5 minutes before formalin, 40 min, p-value<0.001; for licking, early phase (reflecting acute pain) / licking, late phase (reflecting chronic pain): FIG. 4
Description: The effects of compound (Ib) and (Ic) were determined in the acute and chronic peripheral pain model according to Kolesnikov, Cristea, Oksman, Torosjan, and Wilson (Brain Research 17: 217-223, 2004). Use of this model involves pre-treatment with the test compound and injection of formalin (5% in 20 microliters) into the right hindpaw of mice. Groups of mice (n=10) were injected intrathecally into the lumbar segment with compound (Ib) or (Ic) at 250 micromolar in 5 microliters, at 5 minutes prior to subcutaneous formalin injection into the right hindpaw. The mice were monitored for 40 min for licking activity and assessed according to the method of Abbott, Franklin, and Westbrook (Pain 60: 91-102, 1995).

[5] = tested on: strychnine-induced allodynia; conditions: lumbar intrathecal
Description: Injections into the 6th lumbar intrathecal space were performed according to the method of Hylden and Wilcox (Brain Research 217: 212-215, 1981). The total volume used for injection in all experiments was 5 microliters of artificial cerebrospinal fluid (aCSF). In mice anesthetized with isoflurane, strychnine at 200 micromolar in 5 microliters of aCSF was injected either alone or in combination with compound (Ia) at concentrations of 4 to 8 millimolar in a total volume of 5 microliters of aCSF. In each experiment 2 mice were injected with 5 microliters of solution within one minute of each other. One of the mice received strychnine 200 micromolar in aCSF (control) and the other received the same volume with strychnine 200 micromolar in combination with the test compound (Ia). The mice were placed in a container designed such that they were unaware of the other, but could be simultaneously observed. The presence of flinching, scratching or vocalization in response to touching with a fine hair was noted every two minutes. Responses limited to lumbar segments 5 and 6, as well as originating from more caudal nerve distribution were considered as positive. A continuous video recording was made of all responses. Each experiment consisted of 6 to 9 pairs of mice. The blinded observer decided which animal had the greatest response to stimuli. A Wilcoxon signed rank test was used to determine the statistical significance of the results.

[6] = Rotarod test (ataxia, central toxicity) after intravenous administration; conditions: for rotarod performance versus control saline and pre- versus post-injection: 500 mg/kg, 3 ml/kg, tail vein, 10 mice per group, ANOVA p<0.05
Description: Changes in central nervous system behavior viewed as ataxia were measured using the rotarod procedure in mice, described by Vaupel, McConn, and Cone (Journal of Pharmacology & Experimental Therapeutics, 230: 20-27, 1984). A 27-mm diameter rod was rotated at 5 rpm. At least 1 day before testing, mice were trained in three sessions on the rod for two consecutive 5 minute trials, separated by a 5 minute rest period. During the tests, each trial on the rotarod was limited to a 120 seconds maximum. For all experiments two control trials obtained 6 minutes apart preceded the injection (500 mg/kg, 3 ml/kg) of compound (Ib) or (Ic) into the tail vein. Each mouse was then given 2 trials, with 6 minutes between trials after the injection.
The data were analyzed as means±SEM of 10 mice in each group, and examined by analysis of variance (ANOVA) for multiple comparisons with the single control group. Level of significance was set to 5% (p<0.05).

Compound	effect on hyperalgesia or allodynia (vocalization, flinching, scratching) ([2]; FIG. 1)	behavior of mice treated with compound and strychnine [2]	side effects in treated animals [2]	analgesia against trigeminal hyperalgesia or allodynia compared with carbamazepine [2]	analgesia against trigeminal hyperalgesia or allodynia compared with morphine [2]	behavioral toxicity [3]	activity against peripherally induced pain, administered to the lumbar cord [4]	analgesia in peripherally induced pain, intravenous administration [1]	cumulative paw licking [4]	licking, early phase (reflecting acute pain) [4]	licking, late phase (reflecting chronic pain) [4]	rotarod performance versus control saline and pre- versus post-injection [6]	further results
CCC(C)(N)C(=O)O (racemic) [(Ia), Isovaline (2-Amino-2-methylbutanoic acid)]	a great reduction and a total blockade of hyperalgesia or allodynia	identical to the mice which received the aCSF control injection without strychnine	no side effects such as sedation, movement disorders, or abnormal behavior	surpassed the analgesia produced by carbamazepine	to a much greater degree than the tested reference opioid, morphine	no observed behavioral toxicity	active against acute and chronic pain induced peripherally	–	–	–	–	–	licking, late phase (reflecting chronic pain) ([1]; 500 mg/kg intravenously, 10 minutes before formalin, 10 to 40 minutes, FIG. 5, p<0.001): significantly reduced; pairs of mice in which blinded observer identified presence of compound ([5]; 8 millimolar plus strychnine 200 micromolar, 5 microliter, FIG. 3, p<0.01): 6 out of 6; effect of sole administration (without strychnine) ([5]; 25 microliters at 10 millimolar, no strychnine): did not produce a significant result; duration of effect [5]: at least 60 minutes; sedation, movement disorders, abnormal behaviour in treated animals ([5]; 8 millimolar): no sedation, movement disorders, or abnormal behaviour; behavior of treated mice without concomitant strychnine injection ([5]; no strychnine, compared with aCSF control): identical to those mice that received aCSF control injection
CCC(C)(N)C(=O)O (single isomer, unassigned) [(Ib), Isovaline (2-Amino-2-methylbutanoic acid)]	The same effects were obtained	identical to the mice which received the aCSF control injection without strychnine	no side effects such as sedation, movement disorders, or abnormal behavior	surpassed the analgesia produced by carbamazepine	to a much greater degree than the tested reference opioid, morphine	no observed behavioral toxicity	active against acute and chronic pain induced peripherally	effective in producing analgesia	significantly reduced	significantly reduced	significantly reduced	did not show significant differences	–
CCC(C)(N)C(=O)O (single isomer, unassigned) [(Ic), Isovaline (2-Amino-2-methylbutanoic acid)]	The same effects were obtained	identical to the mice which received the aCSF control injection without strychnine	no side effects such as sedation, movement disorders, or abnormal behavior	surpassed the analgesia produced by carbamazepine	to a much greater degree than the tested reference opioid, morphine	no observed behavioral toxicity	active against acute and chronic pain induced peripherally	effective in producing analgesia	significantly reduced	significantly reduced	significantly reduced	did not show significant differences	–
CCC(C)(N)C(=O)O (centres unmarked) [Formula (I), Isovaline (2-Amino-2-methylbutanoic acid)]	–	–	–	–	–	–	–	–	–	–	–	–	blood-brain-barrier crossing ([1]; inferred from analgesia after intravenous administration): crosses the blood-brain-barrier; central nervous system toxicity, such as ataxia or other disturbances in conscious behavior ([6]; mouse, in vivo): no evidence
NC(=O)N1c2ccccc2C2OC2c2ccccc21 (centres unmarked) [carbamazepine epoxide, reference compound]	–	–	–	–	–	–	–	–	–	–	–	–	analgesic effect ([2]; 30 mg/kg body weight, FIG. 1): an analgesic effect
CN1CC[C@]23c4c5ccc(O)c4O[C@H]2[C@@H](O)C=C[C@H]3[C@H]1C5 [morphine, reference compound]	–	–	–	–	–	–	–	–	–	–	–	–	responses to intracisternal injections (analgesia) ([2]; 1 mg/kg body weight, intracisternal, FIG. 1): poor or absent
